Experimental findings from patent publication US5760036A, “Aminediol protease inhibitors” (E. R. Squibb & Sons, Inc., priority 1995, dated 1998) are described below.

Where two headings read alike, the source gives them in different places.

Experiment [1] deals with RF strain of HIV (CEM-SS cells). The experiment can be described thus: Cell Culture Anti-HIV Activity (cell viability, formazan). The class given is cell-based. Conditions: Human immunodeficiency virus 1, CEM-SS, 144 h, CEM-SS cells, RF strain of HIV, multiplicity of infection 0.04, 6 days at 37° C., 450 nm; read-out: HIV (CEM Cells) IC50. In outline: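 Half-log compound dilutions added to CEM-SS cells (5000/well) carrying HIV RF (MOI 0.04), 6 days, 37° C. Cell protection measured as formazan from tetrazolium, A450. IC50: drug level restoring infected-cell formazan to 50% of the uninfected untreated control.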

The target in another experiment is T1, HIV protease (Human immunodeficiency virus type 1 group M subtype B, UniProt P04585).
T1 construct: and purified protease
Put plainly: HIV Protease Assay. The class given is biochemical. The gist of the method:
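At a single final concentration of 10 μM (4% DMSO), inhibitors were added to a 30-minute, 37° C reaction of purified enzyme with 450 μM H2N-Val-Ser-Gln-Asn-(β-naphthyl-alanine)-Pro-Val-Ile-OH at pH 5.5 (sodium acetate, BSA). Hydrolysis was quantified by reverse-phase HPLC with 220 nm detection after acid quench.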

Where [2] appears, read: pH 5.5, 10 μM inhibitor, 4% DMSO, 450 μM substrate, pH 5.5, 30 minutes at 37° C., RP-HPLC, read-out: HIV Protease % Inhibition at 10 μM.
[3] abbreviates: pH 5.5, read-out: HIV Protease % Inhibition at 10 μM.

Turning to `CC(C)(C)OC(=O)N[C@@H](Cc1ccccc1)[C@H](O)CNC[C@@H](O)[C@H](Cc1ccccc1)NC(=O)[C@@H](NC=O)C(C)(C)C` [Compound 234, [1S-[1R*,2S*(2S*,3R*),(R*)]]-[3-[[3-[[3,3-Dimethyl-2-(formylamino)-1-oxobutyl]amino]-2-hydroxy-4-phenylbutyl]amino]-2-hydroxy-1-(phenylmethyl)propyl]carbamic acid, 1,1-dimethylethyl ester], the IC50 (usually the concentration at which inhibition is half-maximal) in experiment [1] was 0.08 µM. Further, on HIV protease (setting [2]), the inhibition (in general, the relative decrease from the control value, in per cent) at 10 µM worked out at 100%.

As to `CC(C)(C)OC(=O)N[C@@H](C/C=C/c1ccc(O)cc1)[C@H](O)CNC[C@@H](O)[C@H](Cc1ccccc1)NC(=O)OC(C)(C)C` [Compound 235, [1S-[1R*,2S*[2S*,3R*(E)]]]-[3-[[3-[[(1,1-Dimethylethoxy)carbonyl]amino]-2-hydroxy-6-(4-hydroxyphenyl)-5-hexenyl]amino]-2-hydroxy-1-(phenylmethyl)propyl]carbamic acid, 1,1-dimethylethyl ester], in experiment [1], the IC50 turned out to be 0.35 µM. In addition, at HIV protease (setting [2]), the inhibition at 10 µM was 97%.

`CC(C)(C)OC(=O)N[C@@H](Cc1ccccc1)[C@H](O)CNC[C@@H](O)[C@H](Cc1ccccc1)NC(=O)OC(C)(C)CNC=O` [Compound 236, [1S-(1R*,2S*)]-[Iminobis[2-hydroxy-1-(phenylmethyl)-3,1-propanediyl]]biscarbamic acid, 2-(formylamino)-1,1-dimethylethyl 1,1-dimethylethyl ester]: the IC50 in experiment [1] turned out to be 0.7 µM. The inhibition at 10 µM at HIV protease (setting [2]) was found to be 89%.

In the case of `CC(C)(C)OC(=O)N[C@@H](Cc1ccccc1)[C@H](O)CNC[C@@H](O)[C@H](Cc1ccccc1)NC(=O)C(OCCCc1nc2ccccc2[nH]1)C(C)(C)C` (stereo partly drawn) [Compound 238, [1S-[1R*,2S*(2S*,3R*)]]-[3-[[3-[[2-[3-(2-Benzimidazolyl)propoxy]-3,3-dimethyl-1-oxobutyl]amino]-2-hydroxy-4-phenylbutyl]amino]-2-hydroxy-1-(phenylmethyl)propyl]carbamic acid, 1,1-dimethylethyl ester], the IC50 in experiment [1] stood at 2.3 µM. Further, the inhibition at 10 µM at HIV protease (setting [2]) amounted to 64%.

As for `CC(C)(C)OC(=O)N[C@@H](Cc1ccccc1)[C@H](O)CNC[C@@H](O)[C@H](Cc1ccccc1)NC(=O)OCCO` [Compound 241, [R-(R*,S*)]-[Iminobis[2-hydroxy-1-(phenylmethyl)-3,1-propanediyl)]biscarbamic acid, 1,1-dimethylethyl-2-hydroxyethyl ester], the IC50 in experiment [1] was 0.28 µM. For the same compound, at HIV protease (setting [2]), the inhibition at 10 µM was 95%.

On to `CC(C)(C)OC(=O)N[C@@H](Cc1ccccc1)[C@H](O)CNC[C@@H](O)[C@H](Cc1ccc(OCc2nc3ccccc3o2)cc1)NC(=O)OC(C)(C)C` [Compound 242, [1S-[1R*,2S*(2S*,3R*)]]-[3-[[4-[4-[(2-Benzoxazolyl)methoxy]phenyl]-3-[[(1,1-dimethylethoxy)carbonyl]amino]-2-hydroxybutyl]amino]-2-hydroxy-1-(phenylmethyl)propyl]carbamic acid, 1,1-dimethylethyl ester], for which, in experiment [1], the half-maximal inhibitory concentration (IC50) was found to be 0.11 µM. Moreover, the inhibition at 10 µM on HIV protease (setting [2]) came out at 99%.

As to `CC(C)(C)OC(=O)N[C@@H](Cc1ccccc1)[C@H](O)CNC[C@@H](O)[C@H](Cc1ccc(OCCCc2nc3ccccc3o2)cc1)NC(=O)OC(C)(C)C` [Compound 244, [1S-[1R*,2S*(2S*,3R*)]]-[3-[[3-[[(1,1-Dimethylethoxy)carbonyl]amino]-2-hydroxy-4-[4-[3-[(2-benzoxazolyl)-propoxy]phenyl]butyl]amino]-2-hydroxy-1-(phenylmethyl)propyl]carbamic acid, 1,1-dimethylethyl ester], the IC50 in experiment [1] is 1.5 µM. Besides, at HIV protease (setting [2]), the inhibition at 10 µM was 100%.

Turning to `CC(C)(C)OC(=O)N[C@@H](Cc1ccccc1)[C@H](O)CNC[C@@H](O)[C@H](Cc1ccccc1)NC(=O)OC(C)(C)CF` [Compound 252, [1S-(1R*,2S*)]-[Iminobis[2-hydroxy-1-(phenylmethyl)-3,1-propanediyl]]biscarbamic acid 2-fluoro-1,1-dimethylethyl 1,1-dimethylethyl ester], the IC50 in experiment [1] came out at 0.06 µM. The inhibition at 10 µM at HIV protease (setting [2]) amounted to 99%.

Regarding `CC(C)(C)OC(=O)N[C@@H](Cc1ccccc1)[C@H](O)CNC[C@@H](O)[C@H](Cc1ccccc1)NC(=O)OCc1cccnc1` [Compound 256, [R-(R*,S*)]-[Iminobis[2-hydroxy-1-(phenylmethyl)-3,1-propanediyl)]biscarbamic acid. 1,1-dimethylethyl-3-pyridinylmethyl ester], in experiment [1], the IC50 was found to be 1.5 µM. The inhibition at 10 µM at HIV protease (setting [2]) was 88%.

In the case of `CC(C)(C)OC(=O)N[C@@H](Cc1ccccc1)[C@H](O)CNC[C@@H](O)[C@H](Cc1ccccc1)NC(=O)[C@@H](NC(=O)OCc1nc2ccccc2o1)C(C)(C)C` [Compound 257, [S-[1R*,2S*(2S*,3R*)]]-[2,2-Dimethyl-1-[[[3-[[3-[[(1,1-dimethylethoxy)carbonyl]amino]-2-hydroxy-4-phenylbutyl]-amino]-2-hydroxy-1-(phenylmethyl)propyl]amino]-carbonyl]propyl]carbamic acid, (2-benzoxazolyl)methyl ester], the IC50 in experiment [1] came out at 0.03 µM. Further, the inhibition at 10 µM at HIV protease (setting [2]) was 99%.

Take `CC(OC(=O)N[C@@H](Cc1ccccc1)[C@H](O)CNC[C@@H](O)[C@H](Cc1ccccc1)NC(=O)OC(C)(C)C)c1cccnc1` (stereo partly drawn) [Compound 258, [R-(R*,S*)]-[Iminobis[2-hydroxy-1-(phenylmethyl)-3,1-propanediyl)]biscarbamic acid. 1,1-dimethylethyl-1-(3-pyridinyl)ethyl ester]: the IC50 in experiment [1] was found to be 1.5 µM. Also, the inhibition at 10 µM at HIV protease (setting [2]) was found to be 91%.

Take `CC(C)(C)OC(=O)N[C@@H](Cc1ccccc1)[C@H](O)CNC[C@@H](O)[C@H](Cc1ccccc1)NC(=O)[C@@](C)(O)C(C)(C)C` [Compound 261, [1S-[1R*,2S*[2R*,3R*(R*)]]]-[3-[[3-[(2-Hydroxy-2,3,3-trimethyl-1-oxobutyl)amino]-2-hydroxy-4-phenylbutyl]amino]-2-hydroxy-1--(phenylmethyl)propyl]carbamic acid, 1,1-dimethylethyl ester]: the IC50 in experiment [1] was 1.1 µM. Moreover, on HIV protease (setting [3]), the inhibition at 10 µM was determined as 94%.

`CC(C)(C)OC(=O)N[C@@H](Cc1ccccc1)[C@H](O)CNC[C@@H](O)[C@H](Cc1ccccc1)NC(=O)[C@](C)(O)C(C)(C)C` [Compound 262, [1S-[1R*,2S*[2S*,3R*(S*)]]]-[3-[[3-[(2-Hydroxy-2,3,3-trimethyl-1-oxobutyl)amino]-2-hydroxy-4-phenylbutyl]amino]-2-hydroxy-1-(phenylmethyl)propyl]carbamic acid, 1.1-dimethylethyl ester]: the IC50 in experiment [1] worked out at 0.03 µM. Further, the inhibition at 10 µM at HIV protease (setting [3]) turned out to be 100%.

With `C[C@@H](O)C(C)(C)OC(=O)N[C@@H](Cc1ccccc1)[C@H](O)CNC[C@@H](O)[C@H](Cc1ccccc1)NC(=O)OC(C)(C)C` [Compound 275, [1S-[1R*,2S*),(S*)]-[Iminobis [2-hydroxy-1-(phenylmethyl)-3,1-propanediyl]]biscarbamic acid, 1,1-dimethylethyl 2-hydroxy-1,1-dimethylpropyl ester], the IC50 in experiment [1] came out at 0.45 µM. The inhibition at 10 µM on HIV protease (setting [2]) came to 95%.
